# Source: patent US20050227306A1, “Fluorescence polarization assay to detect protease cleavage” (priority 2003, published 2005)
# Experiments:
# [1] = test system: substrate 23-F (His6-tetraCys-X-MBP); test: Fluorescence anisotropy proteolysis assay with substrate 23-F; assay type: biochemical, E. coli; conditions: initial rate by fluorescence anisotropy, normalized to the rate of the protease with its preferred cognate substrate
# Text: (§1) All protease substrates were expressed in E. coli Rosetta pLacI Rare to provide compensation for rare codons (see Kirienko et al. (2004) Biochemistry (Mosc) 69:527-535; available commercially from Novagen, a wholly-owned subsidiary of EMD Biosciences, Inc., Madison, Wis.). The expression was done in 2-L PET bottles (Millard et al. (2003) Protein Expr. Purif. 29:311-320). The protein purification followed typical IMAC purification procedures (see Sambrook & Russell, supra) including elution in an imidazole gradient from 0-350 mM. After SDS-PAGE analysis, appropriate fractions were pooled and desalted into 20 mM phosphate, pH 7.5, containing 100 mM NaCl and 0.3 mM TCEP. […]
# (§2) Protease assays were conducted using a combination of 20 μM unlabeled and 40 nM labeled protease substrates unless noted otherwise. […] This decreased the amount of time between mixing and measurement to less than three minutes and allowed the fluorescence anisotropy measured at the first time point to closely approximate the anisotropy of the intact fusion protein. […]
# (§3) Fluorescence anisotropy was measured using a Tecan 384 Ultra plate spectrofluorimeter. Excitation was at 485 nm (25 nm bandpass) and emission was measured at 525 nm (20 nm bandpass). […] See J. Lakowicz, “Principles of fluorescence spectroscopy,” Kluwer Academic/Plenum Publishers, New York, 1999. […]
# [2] = test system: substrate 25-F (His6-tetraCys-X-MBP); test: Fluorescence anisotropy proteolysis assay with substrate 25-F; assay type: biochemical, E. coli; conditions: for Relative rate of reaction, substrate 25F: initial rate by fluorescence anisotropy, normalized to the rate of the protease with its preferred cognate substrate; for Specific reaction rate: substrate 25-F
# Text: (§4) All protease substrates were expressed in E. coli Rosetta pLacI Rare to provide compensation for rare codons (see Kirienko et al. (2004) Biochemistry (Mosc) 69:527-535; available commercially from Novagen, a wholly-owned subsidiary of EMD Biosciences, Inc., Madison, Wis.). The expression was done in 2-L PET bottles (Millard et al. (2003) Protein Expr. Purif. 29:311-320). The protein purification followed typical IMAC purification procedures (see Sambrook & Russell, supra) including elution in an imidazole gradient from 0-350 mM. After SDS-PAGE analysis, appropriate fractions were pooled and desalted into 20 mM phosphate, pH 7.5, containing 100 mM NaCl and 0.3 mM TCEP. Proteins were concentrated to a final concentration of 300-600 μM using centrifugal concentrators. Glycerol (50% v/v) was added to all protease substrates except 26-F and frozen at −20° C. The Arabidopsis targets At3g03410 (expressed from pVP14) and At3g16990 (expressed from pVP15) were flash frozen as drops in liquid nitrogen and stored at −80° C.
# (§5) A 20% molar excess of the tetraCys reagent was incubated overnight (˜12 h) with protein (10-100 μg) at room temperature in 20 mM phosphate, pH 7.5, containing 100 mM NaCl, 0.3 mM TCEP, and 1 mM β-mercaptoethanol. After the labeling reaction, unincorporated fluorophore was removed by two successive cycles of 10-fold dilution and concentration using centrifugal concentrators.
# as §2, with “otherwise. TEV protease reactions were conducted in 20 mM Tris-HCl, pH 8.0, containing 100 mM NaCl, 0.3 mM TCEP, 1 mM β-mercaptoethanol, and 5 mM EDTA.” for “otherwise.”
# Fluorescence anisotropy was measured using a Tecan 384 Ultra plate spectrofluorimeter. Excitation was at 485 nm (25 nm bandpass) and emission was measured at 525 nm (20 nm bandpass). […] The observed anisotropy is the sum of the anisotropy of the individual fluorescent components, or robs=Σfiri, where robs, is the observed anisotropy, fi is the fractional fluorescence intensity of component i, and ri is the anisotropy of component i. See J. Lakowicz, “Principles of fluorescence spectroscopy,” Kluwer Academic/Plenum Publishers, New York, 1999. For a two-state system with the fluorophore attached to either the intact fusion protein or to the small peptide produced by proteolysis, the fractional extent of reaction is given by ξ=(rf−robs)/(rf−rc), where rf is the fluorescence anisotropy of the intact fusion protein and rc is the fluorescence anisotropy of small peptide. […]
# [3] = test system: substrate 26-F (His6-tetraCys-X-MBP); test: Fluorescence anisotropy proteolysis assay with substrate 26-F; assay type: biochemical, E. coli; conditions: initial rate by fluorescence anisotropy, normalized to the rate of the protease with its preferred cognate substrate
# Text: as §1, §2, §3
# [4] = test system: substrate 22-F (His6-tetraCys-X-MBP); test: Fluorescence anisotropy proteolysis assay with substrate 22-F; assay type: biochemical, E. coli; conditions: for Relative rate of reaction, substrate 22F: initial rate by fluorescence anisotropy, normalized to the rate of the protease with its preferred cognate substrate
# Text: as §4, §5
# Protease assays were conducted using a combination of 20 μM unlabeled and 40 nM labeled protease substrates unless noted otherwise. TEV protease reactions were conducted in 20 mM Tris-HCl, pH 8.0, containing 100 mM NaCl, 0.3 mM TCEP, 1 mM β-mercaptoethanol, and 5 mM EDTA. Reactions with thrombin, enterokinase, and Factor Xa were performed in the buffer supplied by the manufacturer. Trypsin reactions were carried out in the buffer supplied for thrombin. Assays were carried out in black Cliniplate 384 well plates in a 40 μL reaction volume or in black Greiner 384 well plates using an 80 μL reaction volume. […] This decreased the amount of time between mixing and measurement to less than three minutes and allowed the fluorescence anisotropy measured at the first time point to closely approximate the anisotropy of the intact fusion protein. […]
# Fluorescence anisotropy was measured using a Tecan 384 Ultra plate spectrofluorimeter. Excitation was at 485 nm (25 nm bandpass) and emission was measured at 525 nm (20 nm bandpass). […] The observed anisotropy is the sum of the anisotropy of the individual fluorescent components, or robs=Σfiri, where robs, is the observed anisotropy, fi is the fractional fluorescence intensity of component i, and ri is the anisotropy of component i. See J. Lakowicz, “Principles of fluorescence spectroscopy,” Kluwer Academic/Plenum Publishers, New York, 1999. For a two-state system with the fluorophore attached to either the intact fusion protein or to the small peptide produced by proteolysis, the fractional extent of reaction is given by ξ=(rf−robs)/(rf−rc), where rf is the fluorescence anisotropy of the intact fusion protein and rc is the fluorescence anisotropy of small peptide. This treatment assumes that there is no difference in the fluorescence intensity of the fluorophore attached to either the fusion protein or the small peptide, and this is justified by the observation that there was no significant change in total fluorescence intensity as the reactions proceeded. […]
# [5] = test system: substrate 21-F (His6-tetraCys-X-MBP); test: Fluorescence anisotropy proteolysis assay with substrate 21-F; assay type: biochemical, E. coli; conditions: initial rate by fluorescence anisotropy, normalized to the rate of the protease with its preferred cognate substrate
# Text: as §1, §2, §3
# [6] = test system: substrate 24-F (His6-tetraCys-X-MBP); test: Fluorescence anisotropy proteolysis assay with substrate 24-F; assay type: biochemical, E. coli; conditions: initial rate by fluorescence anisotropy, normalized to the rate of the protease with its preferred cognate substrate
# Text: as §1, §2, §3
# TEV protease = target: T1, TEV protease (Tobacco etch virus, UniProt P04517); test: Effect of additives on TEV protease cleavage measured by fluorescence polarization; assay type: biochemical; conditions: At3g16990 in pVP15 substrate, 0.5 μM TEV protease, pH 8.0, ca. 22° C.; increasing additive concentrations
# T1 construct: TEV Protease, 0.5 μM
# Text: The following series of Examples exemplify the efficacy of using the disclosed invention in measuring protease cleavage in the presence of various potentially interfering compounds. Briefly, each reaction comprised mixing three components: 1) a mixture of labeled and unlabeled protease substrates; 2) TEV protease; and 3) the potentially interfering additive. The results are presented graphically in FIGS. 3-14 The reaction buffer contained the following components (final concentrations noted):
# Each stated additive as shown in FIGS. 3-14 was added at the stated concentrations. The TEV protease was added to each reaction last, just prior to placing the reactions into the photometer. The reactions were followed in real-time, at ambient temperature (ca. 22° C.). Fluorescence anisotropy was measured at the time points noted in FIGS. 3-14.
# The following figures present the fluorescence data for each of the stated additives: FIG. 3: urea (M), FIG. 4: sucrose concentration (M), FIG. 5: sodium dodecylsulfate (SDS) (wt/vol %), FIG. 6: sodium chloride (NaCl) (M), FIG. 7: guanidium hydrochloride (M), FIG. 8: glycine concentration (wt/vol %), FIG. 9: glycerol concentration (vol/vol %), FIG. 10: ethanol concentration (vol/vol %), FIG. 11: ethylene glycol concentration (vol/vol %), FIG. 12: dimethylsulfoxide (DMSO) (vol/vol %), FIG. 13: calcium chloride (CaCl2) (M), and FIG. 14: arginine (wt/vol %).
# Fluorescence anisotropy was measured using a Tecan 384 Ultra plate spectrofluorimeter. Excitation was at 485 nm (25 nm bandpass) and emission was measured at 525 nm (20 nm bandpass). Anisotropy measurements were made at 2 to 5 min intervals for 5 hours. The observed anisotropy is the sum of the anisotropy of the individual fluorescent components, or robs=Σfiri, where robs, is the observed anisotropy, fi is the fractional fluorescence intensity of component i, and ri is the anisotropy of component i. See J. Lakowicz, “Principles of fluorescence spectroscopy,” Kluwer Academic/Plenum Publishers, New York, 1999. For a two-state system with the fluorophore attached to either the intact fusion protein or to the small peptide produced by proteolysis, the fractional extent of reaction is given by ξ=(rf−robs)/(rf−rc), where rf is the fluorescence anisotropy of the intact fusion protein and rc is the fluorescence anisotropy of small peptide. This treatment assumes that there is no difference in the fluorescence intensity of the fluorophore attached to either the fusion protein or the small peptide, and this is justified by the observation that there was no significant change in total fluorescence intensity as the reactions proceeded.
# [7] = reactions with cognate His6-tetraCys-X-MBP substrates
# T1 sequence (P04517 2038-2279): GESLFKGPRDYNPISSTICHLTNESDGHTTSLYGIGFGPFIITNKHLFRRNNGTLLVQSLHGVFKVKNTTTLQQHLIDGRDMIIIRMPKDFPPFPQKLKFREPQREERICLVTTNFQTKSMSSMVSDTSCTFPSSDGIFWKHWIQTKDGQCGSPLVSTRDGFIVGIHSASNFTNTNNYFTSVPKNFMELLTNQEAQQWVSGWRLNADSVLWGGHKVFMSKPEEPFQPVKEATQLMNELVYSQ
compound,measurement,setting,value
Thrombin,"Relative rate of reaction, substrate 23F",[1],−0.02
same,"Relative rate of reaction, substrate 25F",[2],1
same,Specific reaction rate,"[2]; slope of initial rate versus protease concentration, errors two standard deviations",240±20 moles substrate proteolyzed per mole of protease per hour
same,Specific reaction rate,[2]; thrombin units adjusted for equivalence with enterokinase and Factor Xa unit definition,0.20±0.02 nmole substrate proteolyzed per unit enzyme per hour
same,"Relative rate of reaction, substrate 26F",[3],0.0
same,"Relative rate of reaction, substrate 22F",[4],0.4
same,"Relative rate of reaction, substrate 21F",[5],0.0
same,"Relative rate of reaction, substrate 24F",[6],0.0
"CCCCCCCCCCCCOS(=O)(=O)[O-].[Na+] [SDS, sodium dodecylsulfate]",Effect of additive on fractional completion of the TEV protease cleavage reaction,TEV protease,considerable inhibition
"C[S+](C)[O-] [DMSO, dimethylsulfoxide]",Effect of additive on fractional completion of the TEV protease cleavage reaction,TEV protease,little or no effect
OC[C@H]1O[C@@](CO)(O[C@H]2O[C@H](CO)[C@@H](O)[C@H](O)[C@H]2O)[C@@H](O)[C@@H]1O [sucrose],Effect of additive on fractional completion of the TEV protease cleavage reaction,TEV protease,little or no effect
NCC(=O)O [glycine],Effect of additive on fractional completion of the TEV protease cleavage reaction,TEV protease,little or no effect
"[Ca+2].[Cl-].[Cl-] [CaCl2, calcium chloride]",Effect of additive on fractional completion of the TEV protease cleavage reaction,TEV protease,little or no effect
OCC(O)CO [glycerol],Effect of additive on fractional completion of the TEV protease cleavage reaction,TEV protease,little or no effect
Cl.N=C(N)N [guanidium hydrochloride],Effect of additive on fractional completion of the TEV protease cleavage reaction,TEV protease,considerable inhibition
"[Cl-].[Na+] [NaCl, sodium chloride]",Effect of additive on fractional completion of the TEV protease cleavage reaction,TEV protease,little or no effect
NC(N)=O [urea],Effect of additive on fractional completion of the TEV protease cleavage reaction,TEV protease,considerable inhibition
OCCO [ethylene glycol],Effect of additive on fractional completion of the TEV protease cleavage reaction,TEV protease,considerable inhibition
Trypsin: protease tested on tetraCys-labeled His6-tetraCys-X-MBP substrates,"Relative rate of reaction, substrate 23F",[1],0.1
same,"Relative rate of reaction, substrate 25F",[2],0.5
same,"Relative rate of reaction, substrate 22F",[4],1
same,"Turnover number, fold greater than for TEV protease",[4]; [7],10 fold
same,"Turnover number, fold greater than that observed for thrombin",[4]; [7],3 fold
same,Specific reaction rate,"[4]; substrate 22-F, slope of initial rate versus protease concentration, errors two standard deviations",760±60 moles substrate proteolyzed per mole of protease per hour
same,"Relative rate of reaction, substrate 21F",[5],0.3
same,"Relative rate of reaction, substrate 24F",[6],0.4
N=C(N)NCCC[C@H](N)C(=O)O [arginine],Effect of additive on fractional completion of the TEV protease cleavage reaction,TEV protease,considerable inhibition
CCO [ethanol],Effect of additive on fractional completion of the TEV protease cleavage reaction,TEV protease,considerable inhibition
